In general, IC50 refers to the concentration needed to halve the response being measured.

In one assay the test system is MDA-MB-468. The assay is described as follows: Cytotoxicity (MTS), Example 7, MDA-MB-468. Format: cell-based, human. Particulars: MDA-MB-468, 96 h. How it is done:
One day prior to adding the ADC, cells were harvested from tissue culture and plated into 96-well plates at 2000 cells per well. […] Plates were incubated at 37° C. for 96 h. […] Growth inhibition was measured as a percent of growth relative to untreated cells using Microsoft Excel and Prism software (non-linear regression to generate sigmoidal dose response curves which yield IC50-values).

For another assay, the system named is PC-3. The assay is described as follows: In vitro cytotoxicity, PC-3.
The subject of the next assay is Capan-1 tumors. In words: Capan-1 xenograft therapy. The settings on record: 0.2 mg/kg SN-38 twice weekly x 4 weeks. The assay is classed as in vivo, mouse. How it is done: NCr female athymic nude (nu/nu) mice, 4 to 8 weeks old, and male Swiss-Webster mice, 10 weeks old, were purchased from Taconic Farms. Tolerability studies were performed in Cynomolgus monkeys (Macaca fascicularis; 2.5-4 kg male and female) by SNBL USA, Ltd. Animals were implanted subcutaneously with different human cancer cell lines. Tumor volume (TV) was determined by measurements in 2 dimensions using calipers, with volumes defined as: L×w^2/2, where L is the longest dimension of the tumor and w is the shortest. […] This dosing frequency reflected a consideration of the conjugate's serum half-life […], to allow a more continuous exposure to the ADC.
Statistics—Growth curves are shown as percent change in initial TV over time. Statistical analysis of tumor growth was based on area under the curve (AUC). Profiles of individual tumor growth were obtained through linear-curve modeling. An f-test was employed to determine equality of variance between groups before statistical analysis of growth curves. A 2-tailed t-test was used to assess statistical significance between the various treatment groups and controls, except for the saline control, where a 1-tailed t-test was used (significance at P≤0.05). Statistical comparisons of AUC were performed only up to the time that the first animal within a group was euthanized due to progression.

Another assay deals with TNBC. The assay is described as follows: Phase I/II, TNBC cohort. Format: in vivo, human. The source says: Previous treatments included cyclophosphamide, doxorubicin, carboplatin, gemcitabine, capecitabine, eribulin, cisplatinum, anastrozole, vinorelbine, bevacizumab and tamoxifen.
For a further assay, the target named is T1, recombinant mouse Trop-2 (Mus musculus, UniProt Q8BGV3).
T1 construct: purchased Sino Biological, Inc. 50922-M08H
T1 sequence (Q8BGV3 25-317): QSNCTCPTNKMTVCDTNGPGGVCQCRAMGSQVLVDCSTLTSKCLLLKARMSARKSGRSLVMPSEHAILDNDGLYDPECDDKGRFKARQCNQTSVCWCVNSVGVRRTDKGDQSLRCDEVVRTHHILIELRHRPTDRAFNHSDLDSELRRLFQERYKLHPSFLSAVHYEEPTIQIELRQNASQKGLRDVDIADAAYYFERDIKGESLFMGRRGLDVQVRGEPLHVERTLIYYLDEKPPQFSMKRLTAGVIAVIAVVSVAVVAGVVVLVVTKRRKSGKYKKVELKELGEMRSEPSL
In words: Trop-2 ELISA, murine. The assay is classed as binding. The method, then: Trop-2 ELISA—Recombinant human Trop-2 with a His-tag (Sino Biological, Inc., Bejing, China; Cat #10428-H09H) and recombinant mouse Trop-2 with a His-Tag (Sino Biological, Inc., Cat #50922-M08H) were plated onto Ni-NTA Hissorb strips (Qiagen GmbH Cat #35023) at 1 μg for 1 h at room temperature. The plate was washed four times with PBS-Tween (0.05%) wash buffer. Serial dilutions of hRS7 were made in 1% BSA-PBS dilution buffer to a test range of 0.1 ng/mL to 10 μg/mL. The plates were then incubated for 2 h at room temperature before being washed four times followed by the addition of a peroxidase conjugated secondary antibody (goat anti-human, Fc fragment specific; Jackson Immunoresearch Cat #109-036-098). After a 45-min incubation, the plate was washed and a substrate solution (o-phenylenediamine dihydrochloride (OPD); Sigma, Cat #P828) added to all the wells. Plates were incubated in the dark for 15 min before the reaction was stopped with 4N sulfuric acid. The plates were read at 450 nm on Biotek ELX808 plate reader. Data were analyzed and graphed using Prism GraphPad Software (v4.03) (Advanced Graphics Software, Inc.; Encinitas, CA).
On the technique in general: ELISA stands for enzyme-linked immunosorbent assay.

Description for PC-3: Cell lines, antibodies, and chemotherapeutics—All human cancer cell lines used in this study were purchased from the American Type Culture Collection.

IMMU-132 displayed a 50% inhibitory concentration (IC50) with MDA-MB-468 of 3.9 nM. In addition, in the assay on PC-3, half-maximal inhibition (IC50) was put at 4.24 nM. In addition, the “tumor growth vs untreated and hA20-CL2A-SN-38” value with Capan-1 tumors is “significantly inhibited tumor growth”. Further, the “tumor-free mice at end of study” value with Capan-1 tumors (day 140) is listed as 50%. For the same substance, in the assay on TNBC (10 mg/kg), the “confirmed complete responses (CR), patients” value is recorded as 2; the “partial responses (PR), patients” value worked out at 13; the “stable disease (SD), patients” value is recorded as 25. Further, in the assay with TNBC (15/52), the objective response rate is 29%. Besides, in the assay with TNBC (in vivo), the “favorable response rate (CR plus PR plus SD)” value was found to be 71% and the “median time to progression” value is reported as 9.4 months.

Consider hRS7 IgG, for which the cross-reactivity result with recombinant mouse Trop-2 is “no cross-reactivity with the murine Trop-2”.

(Values after patent US20240352145A1, “EFFICACY OF ANTI-TROP-2-SN-38 ANTIBODY DRUG CONJUGATES FOR THERAPY OF TUMORS RELAPSED/REFRACTORY TO CHECKPOINT INHIBITORS” (Immunomedics, Inc., priority 2016, published 2024).)
